Values after ≈ are worked out from the molar mass of the structure shown. Read-outs that look alike come from different tables or passages of the source.
Experiments:
[1] = test system: MCF7 breast carcinoma cells; assay: Cell proliferation and viability, Trypan blue exclusion assay; format: cell-based; settings: for IC50: 48 h treatment, read-out: IC50, inhibitory effect on MCF7 cell growth
Protocol: FIGS. 5A-5F show the dose dependent effects of CCPS analogs on survival of MCF7 breast carcinoma cells in comparison to the activity of D-e-C6-ceramide, which is commonly used as a model of ceramide action. Cell proliferation and cell viability were determined by Trypan blue exclusion assay. These assays were performed using duplicate samples in two or three independent experiments.
Cell Proliferation: Cells were seeded into plates at a density of approx. 50% corresponding to 1×10^6 cells, in 10 ml of 10% FCS and after an over night incubation the cells were treated with LCL compounds at concentration 0-20 μM in ethanol (ethanol level was kept below 0.1%) and the changes in cell numbers after 48 h were determined and expressed as a percentage of the untreated controls.
Briefly, media was removed, cells were washed twice with PBS, detached using 1% Trypsin and centrifuged at 800 rpm. Cell pellets were resuspended in PBS and Trypan blue (Sigma Chemicals, St. Louis, Mo., USA) was added (1:1 dilution). Under light microscope, the percentage of unstained and stained cells was assessed.
To examine the anticancer activity of CCPS analogs of the invention, their inhibitory effect on MCF7 breast carcinoma cells were analyzed and compared to the activity of D-e-C6-ceramide, which is commonly used as a model of action for ceramides. Cell proliferation and cell viability were determined by Trypan blue exclusion assay.

[2] = test system: isolated rat liver mitochondria; assay: Accumulation / binding in isolated mitochondria
Protocol: FIG. 16. […] Bar 2 and 4 (+FCCP), ΔΨ was dissipated by addition of FCCP at 1 μM plus antimycin A at 0.5 μg/mg protein from the beginning of the experiment. Results are expressed as mean+SEM of n=3, *p=0.01 versus control.
FIG. 23. […] Trace 3 was corrected for the absorbance of TMRM.
Preparation of mitochondria from rat liver.
Mitochondrial incubation medium.
Analysis of ceramides by mass spectroscopy (MS).

[3] = test system: isolated rat liver mitochondria; assay: Cytochrome C release from mitochondria; format: biochemical; settings: 40 μM; for cytochrome C released from mitochondria: 20 minutes of incubation
Protocol: FIGS. 20A and 20B. […] Two min after the addition of CSA and EGTA samples were collected and treated for cytochrome C analysis. Alamethicin (ALA, 7 μg/mg protein) was added as indicated to determine the full degree of permeabilization and maximum cytochrome C release. […] Total amount of cytochrome C is 1.95 μg/mg protein.
Cytochrome C release from mitochondria. Aliquots of mitochondrial suspension were taken as indicated in figure legends and centrifuged at 15,000 g for 3 min. The supernatant and mitochondrial pellet were frozen and stored at […]. Cytochrome C in supernatants and pellets was quantified using the Quantikine cytochrome C ELISA kit (R&D Systems, Minniapolis, Minn.).

MCF7 cells [4] = test system: MCF7 cells
Protocol: (§1) Dose-response curves of ceramides effect on viability of Hep G2 and MCF7 cells. Hep G2 and MCF7 cells were incubated at the condition described in Section 9.1. […] Cell viability was assessed 46 hours after addition of ceramides. Data are expressed as a mean+SEM of n=3.
(§2) Cell culture. Hep G2 cells (obtained from ATCC) were cultured in Minimum essential medium (Eagle) supplemented with 10% fetal bovine serum, 2 mM L-glutamine, non-essential amino acids, 1 mM sodium pyruvate, and 1.5 g/L sodium bicarbonate in humidified air (5% CO2) at 37° C. […] MCF7 cells (obtained from ATCC) were cultured in RPMI 1640 Medium supplemented with 10% fetal bovine serum and 2 mM glutamine in humidified air (5% CO2) at 37° C. All media were supplemented with 100 U/ml penicillin and 100 μg/ml streptomycin.
(§3) Measurement of cell viability. Hep G2 or MCF7 cells were plated at a density of 10^4 cells/well in 96-well plates in the medium described under Cell culture. After 24 hours of incubation, the cells were treated with ceramides for 46 hours in 2% fetal bovine serum medium. Cell viability was determined by MTT (3-[4,5-dimethylthiazol-2-yl]-2,5-diphenyl tetrasodium bromide) based assay according manufacture recommendation (Sigma, St. Louis, Mo.).

[5] = Solubility of ceramides and ceramidoids in water; settings: 37° C.
[6] = test system: isolated rat liver mitochondria; assay: Mitochondrial permeabilization (ΔΨ, large-amplitude swelling); settings: for IC50: read-out: IC50 of mitochondrial swelling, swelling 30 min after ceramide treatment
Protocol: Effects of ceramides on ΔΨ value (17A) and mitochondrial large-amplitude swelling (17B, 17C) Mitochondria were incubated at the condition described under Section 9.1 except that 2 μM of TPP+ was present from the beginning of the experiment. Alamethicin (ALA), a pore-forming peptide (7 μg/mg protein), was added as indicated to induce permeabilization and determine the full extend of potential changes in the parameters of interest. Where indicated ceramides at 40 μM were present from the beginning of the experiment. FIGS. 17A and 17B show time-courses of ceramides effect on ΔΨ and mitochondrial swelling. […] Degree of mitochondrial swelling was determined 30 min after ceramide treatment.
Mitochondria were incubated at the condition described under Section 9.1 except that 2 μM of TPP+ was present from the beginning of the experiment. Trace 2, no addition. […] Trace 4, FCCP at 1 μM was present from the beginning of the experiment. […] Alamethicin (ALA), a pore-forming peptide (7 μg/mg protein), was added as indicated to induce permeabilization and determine the full extent of potential changes in the parameters of interest.
Mitochondria were incubated at the condition described under “Experimental procedures”. […] Trace 2, DCCD at 100 μM was added from the beginning of the experiment. Alamethicin (ALA) was added as indicated to determine full degree of permeabilization. […] The curve was generated from experiments similar to that depicted in traces 1 and 2 with indicated concentration of DCCD present from the beginning of the experiment.
Effect of hydrophobic cations on the time-course of mitochondrial large-amplitude swelling. Alamethicin (ALA), a pore-forming peptide (7 μg/mg protein), was added as indicated to induce permeabilization and determine the full extent of mitochondrial swelling. Where indicated cations at 60 μM were added to the incubation medium. Trace 1, no additions; trace 2, C2 pyridinium ceramide; trace 3, TMRM; trace 4, cetyl pyridinium; trace 5, TPP^+. Trace 3 was corrected for the absorbance of TMRM.
Time-course (A) and dose-response (B) of the effect of C6 pyridinium dihydroceramide on mitochondrial large-amplitude swelling. Mitochondria were incubated at the condition described under “Experimental procedures”. Alamethicin (ALA), a pore-forming peptide (7 μg/mg protein), was added as indicated to induce permeabilization and determine the full extent of mitochondrial swelling. Where indicated ceramides at 30 μM were added to the incubation medium. […] Trace 1, no additions; trace 2, C6 pyridinium ceramide; trace 3, C6 pyridinium dihydroceramide. […] Degree of mitochondrial swelling was determined 15 min after ceramide treatment. Trace 1, C6 pyridinium dihydroceramide; trace 2, C6 pyridinium ceramide.

MCF7 cells [7] = settings: 5 μM, 5 h
Protocol: FIGS. 4A-4C show the cellular levels of CCPS analogs. MCF 7 cells were treated with 5 μM concentration of CCPS analogs over the time and cellular level of the nonmetabolized CCPSs was measured by MS methodology as shown under Experimental. Results are expressed as % of concentration applied.
A parallel set of cells was used to determine cell proliferation and to prepare lipid extracts for MS analysis.
Briefly, for the indicated points, media was removed, cells were washed twice with PBS, scraped into cold PBS (2×1.0 ml), transferred to glass vials and centrifuged for 5 min at 800 rpm. Cell pellets corresponding to ˜1×10^6 cells, were fortified with the internal standards IS (C17 base D-erythro-sphingosine: 17Sph, C17 sphingosine-1-phosphate: 17Sph-1P, N-palmitoyl-D-erythro-C13 sphingosine: 13CC16-Cer and N-heptadecanoyl-D-erythro-C17shingosine: 17CC17-Cer) and extracted (2×2 ml) into a one-phase solvent system with ethyl acetate/iso-propanol/water (60/30/10 v/v). One ml of this extract was used for Pi determination after lipid re-extraction by the Bligh and Dyer method. Remaining lipid extract was evaporated, reconstituted in 100 μl of methanol, and samples were injected on the Surveyor/TSQ 7000 LC/MS system and gradient eluted from the BDS Hypersil C8, 150×3.2 mm, 3 μm particle size column, with 1.0 mM methanolic ammonium formate/2 mM aqueous ammonium formate mobile phase system. Peaks corresponding to the target analytes and IS were collected and processed using the Xcalibur software system.
Cellular level of CCPS analogs was established by MS methodology.

UM-SCC-22A cells [8] = assay: MTT cell survival assay and isobologram studies; format: cell-based, human; settings: UM-SCC-22A, read-out: IC50, cell growth
Protocol: Human head and neck cancer cell lines UM-SCC-1 (retromolar trigone/floor of the mouth), UM-SCC-12 (primary tumor of larynx), and UM-SCC-22A cells were obtained from clinical samples. Cells were grown in DMEM containing 10% FCS and 1% penicillin/streptomycin at 37° C. in 5% CO2.
MTT cell survival assay and isobologram studies. The concentrations of agents that inhibited cell growth by 50% (IC50) were determined from cell survival plots obtained by MTT. Triplicate wells were used for each treatment. The final concentration of DMSO (a solvent for conventional ceramides, GMZ and DOX) in the growth medium was less than 0.1% (v/v) which has no effect on cell growth and survival. Pyridinium ceramides were dissolved in sterile water or growth medium. In short, after cells (5-10×10^3/well) were seeded in 96-well-plates for 24 hr, they were treated with increasing concentrations of ceramide analogs for an additional 48 or 96 hr. For combination treatments, ceramides and chemotherapeutic agents (gemcitabine (GMZ) or doxorubicin (DOX)) were added to the growth medium simultaneously during treatment. Isobologram plots were then constructed using IC50 values of the two agents alone or in combination obtained from MTT assays. A straight line joining points on x- and y-axes represent the IC50 concentrations of two agents, and the points representing the IC50 concentrations of the combination of the two agents are represented as scatter plots on the same graphs. In general, the points that fall within the left of the straight line indicate synergism. The experiments were performed as triplicates in at least 3 independent experiments.
Human head and neck cancer cell lines UM-SCC-1 (retromolar trigone/floor of the mouth), UM-SCC-14A (SCC of anterior floor of the mouth), and UM-SCC-22A (SCC of hypopharynx) cells were obtained. Cells were grown in DMEM containing 10% FCS and 1% penicillin/streptomycin at 37° C. in 5% CO2.
MTT cell survival assay and isobologram studies. The concentrations of agents that inhibited cell growth by 50% (IC50) were determined from cell survival plots obtained by MTT assays. […] In general, the points that fall within the left of the straight line indicate synergism. The experiments were performed as triplicates in at least 3 independent experiments. Error bars represent standard deviations.

UM-SCC-22A cells [9] = assay: Cell cycle profiles by flow cytometry; format: cell-based, human; settings: 1 μM, 48 hr
Protocol: FIGS. 13A to 13B. Roles of CCPS on cell cycle profiles, and telomerase activity of UM-SCC-22A cells. (FIG. 13A) The effects of D-e-C6—, D-e-C12- and L-th-C12-pyridinium ceramides (at 1 μM for 48 hr) on cell cycle profiles of UM-SCC-22A cells were determined and compared to that of untreated cells using flow cytometry as described in Materials and Methods. (FIG. 13B) The effects of 0, 100, 250 and 500 nM L-t-C6-Pyr-Cer (LCL-124) (lanes 1-4, respectively) at 96 hr treatment in UM-SCC-22A cells on telomerase activity was assessed using TRAP assay. Lanes 5 and 6 contain positive (+) and negative (−) controls. To examine whether C6-Pyr-Cer inhibits telomerase activity directly, cell extracts (as shown in lane 1) were incubated in the presence of various concentrations of L-th-C6-Pyr-ceramide (LCL-124; 10, 20 and 100 μM) and telomerase activity was determined using TRAP assay (lanes 7-9, respectively). The presence of non-telomeric 36 bp internal standard (IS) in the TRAP assay serves as a control for polymerase chain reaction, and used for quantitation/normalization of the activity of telomerase. The results shown are representative of at least two independent experiments.
Analysis of cell cycle profiles. The effects of pyridinium ceramides on the cell cycle profiles of A549 cells at 24 hr were analyzed in the presence of DNase-free RNase and propidium iodine (PI) by flow cytometry as described in Ogretmen et al., J. Biol. Chem. 2001; 276: 24901-24910, which is incorporated herein by reference in its entirety. Untreated cells were used as controls.
Analysis of cell cycle profiles. […] Untreated cells were used as controls.

[10] = aqueous conditions at pH 4.5, 7.5 and 8.5 over 48 hrs
MCF7 cells [11] = settings: 5 μM
Protocol: Data are expressed as changes in the total ceramide level (pmol) or individual ceramide components (pmol) normalized to the phospholipid level, Pi (nmol) present in the Bligh & Dyer lipid extract and shown as changes to the control cells: Ceramide/Pi[pmol/nmol] (% Control).
Endogenous ceramide: ESI/MS/MS analysis of endogenous sphingoid bases, sphingoid base 1-phosphates and ceramide species was performed on a Thermo Finnigan TSQ 7000 triple quadrupole mass spectrometer, operating in a Multiple Reaction Monitoring (MRM) positive ionization mode using modified version (Bielawski, J. et al., SERMACS 2003, poster #68) of the protocol previously published (Sullard, M. C., Merrill, A. H., Sciences stke 2001/67/p 11).
Briefly, for the indicated points, media was removed, cells were washed twice with PBS, scraped into cold PBS (2×1.0 ml), transferred to glass vials and centrifuged for 5 min at 800 rpm. Cell pellets corresponding to ˜1×10^6 cells, were fortified with the internal standards IS (C17 base D-erythro-sphingosine: 17Sph, C17 sphingosine-1-phosphate: 17Sph-1P, N-palmitoyl-D-erythro-C13 sphingosine: 13CC16-Cer and N-heptadecanoyl-D-erythro-C17shingosine: 17CC17-Cer) and extracted (2×2 ml) into a one-phase solvent system with ethyl acetate/iso-propanol/water (60/30/10 v/v). One ml of this extract was used for Pi determination after lipid re-extraction by the Bligh and Dyer method. Remaining lipid extract was evaporated, reconstituted in 100 μl of methanol, and samples were injected on the Surveyor/TSQ 7000 LC/MS system and gradient eluted from the BDS Hypersil C8, 150×3.2 mm, 3 μm particle size column, with 1.0 mM methanolic ammonium formate/2 mM aqueous ammonium formate mobile phase system. […]
Quantitative analysis was based on the calibration curves generated by spiking an artificial matrix with the known amounts of the target analyte synthetic standards and an equal amount of the internal standards (IS). […]
Final data were adjusted and results were expressed as level of particular sphingolipids/Pi (pmol/nmol).

Protocol for Hep G2 cells: as §1, §2, §3

Row | Molecule | IC50 [1] | cytochrome C released from mitochondria [3] | IC50 (Hep G2 cells) | IC50 (MCF7 cells [4]) | IC50 [6] | Cellular level, % of concentration applied (MCF7 cells [7]) | inhibitory effect on MCF7 cell growth (in words) ([1]; 48 h) | IC50 (UM-SCC-22A cells [8]; 48 hr) | IC50 (UM-SCC-22A cells [8]; 96 hr, DMEM) | cell cycle profile (UM-SCC-22A cells [9]) | Stability (decomposition) by MS [10] | effect on endogenous ceramide (MCF7 cells [11]) | other results
1 | CCCCCCCCCCCCC/C=C/[C@@H](O)[C@H](CO)NC(=O)CCCCC [C6-Cer, D-erythro-C6-ceramide, reference compound] | 15000 nM | no effect on cytochrome C release | ~31000 nM | ~16000 nM | > 60000 nM |  |  |  |  |  |  |  | inhibition of MCF7 cell growth ([1]; 10 μM, 48 h): ~35%; suppression of accumulation by dissipation of ΔΨ (antimycin plus FCCP) ([2]; 10 μM): insensitive to dissipation of ΔΨ; association with mitochondria ([2]; 10 μM, energized mitochondria): 79.3%; binding to mitochondria ([2]; 30 μM, at 4 min): 5±0.8 nmol/mg protein; Solubility at 37° C. [5]: 1.4 µg/mL (≈ 3.52 µM); Solubility at 37° C. ([mM]) [5]: (0.0036) mM
2 | CCCCCCCCCCCCC/C=C/[C@@H](O)[C@H](CO)NC(=O)CCCCCCCCCCCCCCC[n+]1ccccc1.[Br-] [LCL30, D-erythro-2-N-[16′-(1″-Pyridinium)-hexadecanoyl]-sphingosine Bromide] | 1800 nM |  |  |  |  | ~17% | similar, concentration dependent (1.0-10.0 μM) inhibitory effect on cell growth | ~1000 nM | ~300 nM | significant increase in the population of cells in G0/G1 | no evidence of their decomposition | caused generation of an “early Cer” | IC50 ([1]; listed as LCL-30): 1600 nM
3 | CCCCCCCCCCCCC/C=C/[C@@H](O)[C@H](CO)NC(=O)CCCCCCCCCCC[n+]1ccccc1.[Br-] [LCL88, D-erythro-2-N-[12′-(1″-Pyridinium)-dodecanoyl]-sphingosine Bromide] | 600 nM |  |  |  |  | 23% |  | ~1000 nM | ~300 nM | significant increase in the population of cells in G0/G1 | no evidence of their decomposition | caused generation of an “early Cer” | 
4 | D-erythro-2-N-[6′-(1″-Pyridinium)-hexanoyl]-sphingosine Bromide [LCL29] | 1000 nM | about 40% | ~8000 nM | ~2000 nM | ~27500 nM |  | caused inhibitory effect on MCF7 cell growth | ~1000 nM |  | significant increase in the population of cells in G0/G1 |  | caused generation of an “early Cer” | IC50 (UM-SCC-22A cells [8]; 96 hr, DMEM, listed as D-e-C6-Pyr-Cer): ~300 nM; fold decrease in cytochrome C release with FCCP plus antimycin A ([3]; 20 minutes): ~3 fold; effect on ΔΨ and mitochondrial swelling (in words) ([6]; 40 μM): complete dissipation of ΔΨ

Reference: US8093393B2, “Cationic ceramides, and analogs thereof, and their use for preventing or treating cancer” (MUSC Foundation for Research Development, priority 2004, dated 2012)
